The assay can be described thus: Inhibition of cell division of Strongylocentrotus intermedius fertilized eggs. Format: functional, Egg.

This note sets out measurements from ChEMBL document CHEMBL1150620, “Two new minor polybrominated dibenzo-p-dioxins from the marine sponge Dysidea dendyi” (J Nat Prod, 2002).

Consider `COc1cc(Br)cc(Br)c1Oc1cc(Br)cc(Br)c1O`, for which the midpoint of inhibition, the IC50, lay at 4.7 µM.
The same measure for `Oc1cc(Br)cc2c1Oc1cc(Br)cc(Br)c1O2` [SPONGIADIOXIN C]: 5.7 µM; for `COc1cc(Br)cc2c1Oc1cc(Br)cc(Br)c1O2` [SPONGIADIOXIN C METHYL ETHER]: 166 µM.
The figure for `COc1c(Br)cc(Br)cc1Oc1ccc(Br)cc1Br` is 145 µM.
`Oc1c(Br)c(Br)cc2c1Oc1cc(Br)cc(Br)c1O2` [SPONGIADIOXIN B] gave an IC50 of 1.1 µM.
The figure for `COc1cc(Br)cc(Br)c1Oc1cc(Br)cc(Br)c1OC` is 137 µM; for `Oc1cc(Br)c(Br)c2c1Oc1cc(Br)cc(Br)c1O2` [SPONGIADIOXIN A] it is 4.8 µM.
`COc1c(Br)c(Br)cc2c1Oc1cc(Br)cc(Br)c1O2` [SPONGIADIOXIN B METHYL ETHER] gave an IC50 of 94 µM.
With `COc1cc(Br)c(Br)c2c1Oc1cc(Br)cc(Br)c1O2` [SPONGIADIOXIN A METHYL ETHER], the IC50 was 141 µM.
